In ChEMBL document CHEMBL2074402, “Expression of multidrug resistance-associated protein in NIH/3T3 cells confers multidrug resistance associated with increased drug efflux and altered intracellular drug distribution” (Cancer Res, 1995):
Numbered stars: 1 amine (or outer) side, 2 acyl side, 3 side chain; on linkers, the order of the positions; unused ones are H or OH. Bridge positions count the residues as written; N and C are the ends. Square brackets hold non-standard residues; d marks the D form. Peptide text beside a SMILES is read from it. I, II: the chains in the order shown. Actinocin(9to1) = Cc1c2oc3c(C)ccc(C(=O)[*:1])c3nc-2c(C(=O)[*:2])c(N)c1=O; NMeV = CN[C@H](C(=O)O)C(C)C; Sar = CNCC(=O)O

Target: Multidrug resistance-associated protein 1 (Homo sapiens, UniProt P33527)
Assay: TP_TRANSPORTER: drug sensitivity in MRP1-expressing NIH/3T3 cells
Assay type: functional, cell-based
Details: mouse, nih3t3

Chain of Multidrug resistance-associated protein 1 (P33527 whole entry): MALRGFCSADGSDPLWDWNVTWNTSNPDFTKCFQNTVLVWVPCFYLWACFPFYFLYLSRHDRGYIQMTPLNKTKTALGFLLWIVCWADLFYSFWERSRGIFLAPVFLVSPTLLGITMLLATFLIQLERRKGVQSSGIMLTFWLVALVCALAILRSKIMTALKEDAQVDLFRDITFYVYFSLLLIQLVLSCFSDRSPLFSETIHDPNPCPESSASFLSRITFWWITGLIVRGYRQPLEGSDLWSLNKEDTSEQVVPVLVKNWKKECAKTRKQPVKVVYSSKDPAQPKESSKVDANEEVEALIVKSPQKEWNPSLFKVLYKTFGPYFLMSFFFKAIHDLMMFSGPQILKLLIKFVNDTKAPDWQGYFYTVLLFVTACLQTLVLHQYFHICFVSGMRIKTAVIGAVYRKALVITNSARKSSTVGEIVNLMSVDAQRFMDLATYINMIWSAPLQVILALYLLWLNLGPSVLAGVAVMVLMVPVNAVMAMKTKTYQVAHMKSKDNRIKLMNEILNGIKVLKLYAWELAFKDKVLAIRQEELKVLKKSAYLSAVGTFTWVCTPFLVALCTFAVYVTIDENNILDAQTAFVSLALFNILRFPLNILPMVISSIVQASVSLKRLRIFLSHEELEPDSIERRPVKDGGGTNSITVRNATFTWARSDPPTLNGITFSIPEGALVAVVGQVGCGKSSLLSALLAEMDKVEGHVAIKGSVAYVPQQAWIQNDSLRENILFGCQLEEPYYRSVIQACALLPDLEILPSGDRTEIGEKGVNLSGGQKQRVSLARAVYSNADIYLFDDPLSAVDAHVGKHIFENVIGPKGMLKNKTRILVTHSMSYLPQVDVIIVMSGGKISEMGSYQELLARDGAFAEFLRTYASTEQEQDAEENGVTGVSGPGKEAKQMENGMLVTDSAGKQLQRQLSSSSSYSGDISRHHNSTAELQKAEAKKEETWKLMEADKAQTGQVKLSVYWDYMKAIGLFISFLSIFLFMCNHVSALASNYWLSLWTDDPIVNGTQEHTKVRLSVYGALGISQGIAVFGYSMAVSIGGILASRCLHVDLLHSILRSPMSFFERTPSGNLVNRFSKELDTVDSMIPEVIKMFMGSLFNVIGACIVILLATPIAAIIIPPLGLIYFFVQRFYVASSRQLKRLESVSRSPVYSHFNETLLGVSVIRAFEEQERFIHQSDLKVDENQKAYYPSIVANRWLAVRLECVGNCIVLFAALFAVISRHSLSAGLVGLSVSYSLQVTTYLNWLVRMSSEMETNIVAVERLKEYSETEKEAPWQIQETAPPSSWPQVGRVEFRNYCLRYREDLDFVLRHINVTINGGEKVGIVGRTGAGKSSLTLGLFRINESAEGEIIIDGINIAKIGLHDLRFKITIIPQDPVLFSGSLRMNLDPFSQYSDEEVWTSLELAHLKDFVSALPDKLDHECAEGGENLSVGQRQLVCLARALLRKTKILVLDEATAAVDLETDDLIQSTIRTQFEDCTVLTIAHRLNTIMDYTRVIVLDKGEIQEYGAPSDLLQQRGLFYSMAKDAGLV

Cc1c2oc3c(C)ccc(C(=O)N[C@@H]4C(=O)N[C@H](C(C)C)C(=O)N5CCC[C@H]5C(=O)N(C)CC(=O)N(C)[C@@H](C(C)C)C(=O)O[C@@H]4C)c3nc-2c(C(=O)N[C@@H]2C(=O)N[C@H](C(C)C)C(=O)N3CCC[C@H]3C(=O)N(C)CC(=O)N(C)[C@@H](C(C)C)C(=O)O[C@@H]2C)c(N)c1=O [DACTINOMYCIN] (I: T[dV]P[Sar][NMeV] / II: T[dV]P[Sar][NMeV]; ester I:1-I:C, II:1-II:C; linker I:N-II:N via Actinocin(9to1))
Activity: substrate [+]
